The values that follow come from US11814367B2, “Inhibitors of glycogen synthase 1 (GYS1) and methods of use thereof” (Maze Therapeutics, Inc., priority 2021, dated 2023).

The term pIC50 denotes the negative decadic logarithm of the IC50, by convention in mol/L.

The test system of test [1] is hGYS1 enzyme / glycogen synthesis in HeLa cells. The test is described as follows: GYS1 cell based assay (glycogen synthesis, Glucose-glo). Particulars: 24 h incubation, 20 mM glucose, geometric mean of at least 2 runs. Set-up: species or system human. A digest of the protocol: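 HeLa cells starved 24 h in medium containing only 1× Glutamax were plated onto compound in medium with 20 mM glucose (1% DMSO final) for 24 h, 37 °C, 5% CO2. Acid lysates were Tris-quenched, glucoamylase-digested (pH 5.3, 1 h, 37 °C) and read by Glucose-glo luminescence. IC50 came from Hill fits, as geometric mean of ≥2 runs.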

Test [2] addresses hGYS1 enzyme (recombinant hGYS1/GN1 protein) (Homo sapiens (Human), UniProt P13807). Put plainly: GYS1 coupled enzyme assay (PK/LDH). Format: biochemical. To be noted: hGYS1/GN1 50 nM, UDP-Glucose 0.8 mM, G6P 1 mM; geometric mean of at least 2 runs.

pIC50: −log10 of the molar value.

Chain of hGYS1 enzyme (recombinant hGYS1/GN1 protein) (P13807 whole entry): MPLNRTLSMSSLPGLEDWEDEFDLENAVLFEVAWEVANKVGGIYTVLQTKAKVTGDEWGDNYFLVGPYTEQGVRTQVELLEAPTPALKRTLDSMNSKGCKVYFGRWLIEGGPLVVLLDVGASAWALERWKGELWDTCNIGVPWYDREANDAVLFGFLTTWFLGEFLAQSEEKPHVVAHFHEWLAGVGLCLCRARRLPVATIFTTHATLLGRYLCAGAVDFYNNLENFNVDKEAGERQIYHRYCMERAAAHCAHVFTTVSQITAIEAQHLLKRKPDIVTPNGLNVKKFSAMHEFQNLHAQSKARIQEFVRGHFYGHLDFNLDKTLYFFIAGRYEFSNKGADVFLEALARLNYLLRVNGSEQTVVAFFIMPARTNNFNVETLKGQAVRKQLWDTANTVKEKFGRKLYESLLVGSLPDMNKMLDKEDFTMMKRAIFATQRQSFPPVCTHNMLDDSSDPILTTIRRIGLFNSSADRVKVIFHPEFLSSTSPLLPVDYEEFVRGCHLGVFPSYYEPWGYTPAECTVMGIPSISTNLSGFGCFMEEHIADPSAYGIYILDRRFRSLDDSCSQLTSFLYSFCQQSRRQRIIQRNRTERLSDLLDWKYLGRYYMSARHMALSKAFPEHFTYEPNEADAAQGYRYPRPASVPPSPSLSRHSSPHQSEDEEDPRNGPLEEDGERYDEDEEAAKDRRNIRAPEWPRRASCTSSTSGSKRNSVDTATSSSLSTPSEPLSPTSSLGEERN
Chain of hGYS1 enzyme (recombinant hGYS1/GN1 protein) (P46976 whole entry partner): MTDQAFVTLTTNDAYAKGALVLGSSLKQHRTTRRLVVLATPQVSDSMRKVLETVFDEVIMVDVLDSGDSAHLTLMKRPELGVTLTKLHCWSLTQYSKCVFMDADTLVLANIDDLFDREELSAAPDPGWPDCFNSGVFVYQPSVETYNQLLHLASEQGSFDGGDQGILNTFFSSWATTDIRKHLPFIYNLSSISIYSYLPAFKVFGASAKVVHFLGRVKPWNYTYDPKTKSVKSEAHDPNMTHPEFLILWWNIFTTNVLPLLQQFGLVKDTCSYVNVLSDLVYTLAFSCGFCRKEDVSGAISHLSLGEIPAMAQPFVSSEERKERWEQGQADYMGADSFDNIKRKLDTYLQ

For `Cc1cc(C(F)F)nn1CC(=O)N1C[C@H](F)C[C@H]1C(=O)N[C@@H](c1ccccc1)c1ccc(C2CC2)c(F)n1` [Compound 752, (2S,4R)-N-[(S)-(5-cyclopropyl-6-fluoropyridin-2-yl)(phenyl)methyl]-1-{2-[3-(difluoromethyl)-5-methyl-1H-pyrazol-1-yl]acetyl}-4-fluoropyrrolidine-2-carboxamide], the negative logarithm of the IC50 (pIC50) in test [1] (Homo sapiens, HeLa, 24 h) is 6.19; in test [2] it was 7.68.
In the case of `CC(C)(C)OC(=O)n1c(CC(=O)N2C[C@H](F)C[C@H]2C(=O)N[C@@H](c2ccccc2)c2ccc(C3CC3)c(F)c2)cc2ccccc21` [Compound 461, tert-butyl 2-{2-[(2S,4R)-2-{[(S)-(4-cyclopropyl-3-fluorophenyl)(phenyl)methyl]carbamoyl}-4-fluoropyrrolidin-1-yl]-2-oxoethyl}-1H-indole-1-carboxylate], the pIC50 is 6.24 in test [1] (Homo sapiens, HeLa, 24 h) and 7.59 in test [2].
In the same order, the values of `CCn1cc(C)cc(CC(=O)N2C[C@H](F)C[C@H]2C(=O)N[C@@H](c2ccccc2)c2ccc(C3CC3)c(F)n2)c1=O` [Compound 740, (2S,4R)-N-[(S)-(5-cyclopropyl-6-fluoropyridin-2-yl)(phenyl)methyl]-1-[2-(1-ethyl-5-methyl-2-oxo-1,2-dihydropyridin-3-yl)acetyl]-4-fluoropyrrolidine-2-carboxamide] are 6.49 and 8.05.
In the same order, the values of `CCOc1ncc(CC(=O)N2C[C@H](F)C[C@H]2C(=O)N[C@@H](c2ccccc2)c2ccc(C3CC(F)(F)C3)c(F)n2)cc1C` [Compound 524, (2S,4R)-N-[(S)-[5-(3,3-difluorocyclobutyl)-6-fluoropyridin-2-yl](phenyl)methyl]-1-[2-(6-ethoxy-5-methylpyridin-3-yl)acetyl]-4-fluoropyrrolidine-2-carboxamide] are 6.72 and 8.22.
On to `O=C(N[C@@H](c1ccccc1)c1ccc(C2CC2)c(F)n1)[C@@H]1C[C@@H](F)CN1C(=O)Cc1cccn2c(=O)[nH]nc12` [Compound 297, (2S,4R)-N-[(S)-(5-cyclopropyl-6-fluoropyridin-2-yl)(phenyl)methyl]-4-fluoro-1-(2-{3-oxo-2H,3H-[1,2,4]triazolo[4,3-a]pyridin-8-yl}acetyl)pyrrolidine-2-carboxamide], for which the pIC50 in test [1] (Homo sapiens, HeLa, 24 h) is 6.15; in test [2] it was 7.82.
In the same order, the values of `O=C(N[C@H](c1ccccc1)c1ccc(C2CC(F)(F)C2)c(F)n1)[C@@H]1C[C@@H](F)CN1C(=O)Cc1ccc[nH]c1=O` [Compound 521, (2S,4R)-N-[(R)-[5-(3,3-difluorocyclobutyl)-6-fluoropyridin-2-yl](phenyl)methyl]-4-fluoro-1-[2-(2-oxo-1,2-dihydropyridin-3-yl)acetyl]pyrrolidine-2-carboxamide] are under 4.52 and 5.58.
On to `CC(C)c1ccc([C@@H](NC(=O)[C@@H]2C[C@@H](F)CN2C(=O)Cc2c[nH]c(=O)cn2)c2ccccc2)nc1F` [Compound 802, (2S,4R)-4-fluoro-N-[(S)-[6-fluoro-5-(propan-2-yl)pyridin-2-yl](phenyl)methyl]-1-[2-(5-oxo-4,5-dihydropyrazin-2-yl)acetyl]pyrrolidine-2-carboxamide], for which the pIC50 in test [1] (Homo sapiens, HeLa, 24 h) is 6.43; in test [2] it was 8.05.
In the same order, the values of `Cc1cc(C(NC(=O)[C@@H]2C[C@@H](F)CN2C(=O)Cc2cnn[nH]2)c2cccnc2N)ccc1C(C)C` (single isomer, unassigned) [Compound 624, (2S,4R)-N-[(R) or (S)-(2-aminopyridin-3-yl)[3-methyl-4-(propan-2-yl)phenyl]methyl]-4-fluoro-1-[2-(1H-1,2,3-triazol-5-yl)acetyl]pyrrolidine-2-carboxamide] are 5.24 and 6.39.
In the same order, the values of `CCn1cc(C)cc(CC(=O)N2C[C@H](F)C[C@H]2C(=O)N[C@@H](c2ccccc2)c2ccc(C3CC(F)(F)C3)c(F)n2)c1=O` [Compound 525, (2S,4R)-N-[(S)-[5-(3,3-difluorocyclobutyl)-6-fluoropyridin-2-yl](phenyl)methyl]-1-[2-(1-ethyl-5-methyl-2-oxo-1,2-dihydropyrdin-3-yl)acetyl]-4-fluoropyrrolidine-2-carboxamide] are 7.30 and 8.40.
Consider `Cc1cc(C(F)F)nn1CC(=O)N1C[C@H](F)C[C@H]1C(=O)N[C@@H](c1ccccc1)c1ccc(C(C)C)c(F)n1` [Compound 804, (2S,4R)-1-{2-[3-(difluoromethyl)-5-methyl-1H-pyrazol-1-yl]acetyl}-4-fluoro-N-[(S)-[6-fluoro-5-(propan-2-yl)pyridin-2-yl](phenyl)methyl] pyrrolidine-2-carboxamide], for which the pIC50 is 6.85 in test [1] (Homo sapiens, HeLa, 24 h) and 7.77 in test [2].
In the same order, the values of `CC(C)c1ccc([C@@H](NC(=O)[C@@H]2C[C@@H](F)CN2C(=O)Cn2nncc2N2CC(F)(F)C2)c2ccccc2)nc1` [Compound 714, (2S,4R)-1-{2-[5-(3,3-difluoroazetidin-1-yl)-1H-1,2,3-triazol-1-yl]acetyl}-4-fluoro-N-[(S)-phenyl[5-(propan-2-yl)pyridin-2-yl]methyl]pyrrolidine-2-carboxamide] are 5.86 and 7.35.
As to `CC(C)c1ccc([C@H](NC(=O)[C@@H]2C[C@@H](F)CN2C(=O)Cc2cnn[nH]2)c2ccccc2)nc1F` (relative stereo) [Compound 776, (2S,4R)-4-fluoro-N-[(R*)-[6-fluoro-5-(propan-2-yl)pyridin-2-yl](phenyl)methyl]-1-[2-(1H-1,2,3-triazol-5-yl)acetyl] pyrrolidine-2-carboxamide], the pIC50 in test [1] (Homo sapiens, HeLa, 24 h) is under 5.05; in test [2] it was 5.94.
Consider `CCn1cc(CC(=O)N2C[C@H](F)C[C@H]2C(=O)N[C@@H](c2ccccc2)c2ccc(C3CC(F)(F)C3)c(F)n2)cc(C)c1=O` [Compound 523, (2S,4R)-N-[(S)-[5-(3,3-difluorocyclobutyl)-6-fluoropyridin-2-yl](phenyl)methyl]-1-[2-(1-ethyl-5-methyl-6-oxo-1,6-dihydropyridin-3-yl)acetyl]-4-fluoropyrrolidine-2-carboxamide], for which the negative-log IC50 (pIC50) in test [1] (Homo sapiens, HeLa, 24 h) is 7.10; in test [2], 8.30.
Regarding `CC(C)(C)OC(=O)n1c(CC(=O)N2C[C@H](F)C[C@H]2C(=O)N[C@@H](c2ccccc2)c2ccc(C3(C)CC3)c(F)n2)cc2ccccc21` [Compound 601, tert-butyl 2-{2-[(2S,4R)-4-fluoro-2-{[(S)-[6-fluoro-5-(1-methylcyclopropyl)pyridin-2-yl](phenyl)methyl]carbamoyl}pyrrolidin-1-yl]-2-oxoethyl}-1H-indole-1-carboxylate], the pIC50 in test [1] (Homo sapiens, HeLa, 24 h) was 6.15; in test [2], 7.47.
Consider `CC(C)c1ccc(C(NC(=O)[C@@H]2C[C@@H](F)CN2C(=O)Cc2cnn[nH]2)c2cccc(-c3cnco3)c2)nc1F` (single isomer, unassigned) [Compound 693, (2S,4R)-4-fluoro-N-[(S) or (R)-[6-fluoro-5-(propan-2-yl)pyridin-2-yl][3-(1,3-oxazol-5-yl)phenyl]methyl]-1-[2-(1H-1,2,3-triazol-5-yl)acetyl]pyrrolidine-2-carboxamide], for which the pIC50 is 5.94 in test [1] and 7.25 in test [2].
On to `CCn1cc(N(C)CC(=O)N2C[C@H](F)C[C@H]2C(=O)N[C@@H](c2ccccc2)c2ccc(C3CC3)c(F)c2)nn1` [Compound 473, (2S,4R)-N-[(S)-(4-cyclopropyl-3-fluorophenyl)(phenyl)methyl]-1-{2-[(1-ethyl-1H-1,2,3-triazol-4-yl)(methyl)amino]acetyl}-4-fluoropyrrolidine-2-carboxamide], for which the pIC50 in test [1] (Homo sapiens, HeLa, 24 h) is 5.75; in test [2], 7.00.
In the same order, the values of `CCn1cccc(CC(=O)N2C[C@H](F)C[C@H]2C(=O)N[C@@H](c2ccccc2)c2ccc(C3CC3)c(F)n2)c1=O` [Compound 741, (2S,4R)-N-[(S)-(5-cyclopropyl-6-fluoropyridin-2-yl)(phenyl)methyl]-1-[2-(1-ethyl-2-oxo-1,2-dihydropyridin-3-yl)acetyl]-4-fluoropyrrolidine-2-carboxamide] are 6.15 and 7.80.
As for `CC(=O)N1C[C@@H]2C[C@@H]2[C@H]1C(=O)N[C@@H](c1ccccc1)c1ccc(C(C)C)cc1` [Compound 201, (1S,2S,5R)-3-acetyl-N-[(S)-phenyl[4-(propan-2-yl)phenyl]methyl]-3-azabicycl[3.1.0]hexane-2-carboxamide], the pIC50 in test [1] (Homo sapiens, HeLa, 24 h) is 5.43; in test [2] it was 6.34.
In the same order, the values of `O=C(N[C@@H](c1ccccc1)c1ccc(C2CC2)c(F)n1)[C@@H]1C[C@@H](F)CN1C(=O)Cc1c[nH]c(=O)cn1` [Compound 746, (2S,4R)-N-[(S)-(5-cyclopropyl-6-fluoropyridin-2-yl)(phenyl)methyl]-4-fluoro-1-[2-(5-oxo-4,5-dihydropyrazin-2-yl)acetyl]pyrrolidine-2-carboxamide] are 5.79 and 7.15.
In the same order, the values of `Cn1ncc(CC(=O)N2C[C@H](F)C[C@H]2C(=O)N[C@@H](c2ccccc2)c2ccc(C3CC3)c(F)n2)c1C(F)F` [Compound 751, (2S,4R)-N-[(S)-(5-cyclopropyl-6-fluoropyridin-2-yl)(phenyl)methyl]-1-{2-[5-(difluoromethyl)-1-methyl-1H-pyrazol-4-yl]acetyl}-4-fluoropyrrolidine-2-carboxamide] are 6.33 and 7.89.
In the same order, the values of `COc1nc(CC(=O)N2C[C@H](F)C[C@H]2C(=O)N[C@@H](c2ccccc2)c2ccc(C(C)C)cn2)nn1C` [Compound 712, (2S,4R)-4-fluoro-1-[2-(5-methoxy-1-methyl-1H-1,2,4-triazol-3-yl)acetyl]-N-[(S)-phenyl[5-(propan-2-yl)pyridin-2-yl]methyl]pyrrolidine-2-carboxamide] are 6.48 and 7.82.
